In patent US20250325517A1, “ORAL DOSAGE FORMS OF ELRAGLUSIB” (Actuate Therapeutics, Inc., priority 2022, published 2025):
Converted amounts (≈) assume the structure as drawn.

How the values were obtained:
Type in all cases: physicochemical
[1] = Elra:PVAP and Elra:CAP ASD stability study (XRPD, mDSC, TGA, HPLC, ssNMR); details: crystallinity marker peak of API
Protocol: Both ASDs stored remained amorphous up to 12 weeks storage under the above-mentioned conditions (FIG. 21). The mDSC of the stability samples was carried out in a hermetically sealed pan without any pin hole, to determine the Tg in the presence of residual solvent or moisture (i.e., wet Tg).
An HPLC chromatogram was also obtained using HPLC monitored at 210 nm for a sample stored for 12 weeks at different conditions.
The first derivative was applied to the stability sample spectra (FIGS. 25-29). For pure amorphous samples, ssNMR produces gaussian curves that when applied to first derivative become a flat baseline. Crystalline material produces Laplacian curves by ssNMR which can be clearly observed after applying the first derivative.
Signal to noise ratio of API reference was 8.18. In all four stability samples, the signal to noise ratio for the first derivative peak at 87 ppm remained <2.
Solid-state NMR experiments were performed on a 2 channel Bruker NEO spectrometer (Bruker, Billerica, MA) operating at 100.52 MHz for 13C and 399.71 MHz for 1H. A Chemagnetics APEX probe, refitted with a 7 mm magic angle spinning module (Revolution NMR, Fort Collins, CO) was used to acquire the data. Each sample was packed into a 7 mm zirconia rotor with Kel-F spacers. The magic angle spinning (MAS) frequency that was used to acquire all of the data was 5 kHz. […]

[2] = Solubility of elraglusib in acetone, acetone:water and THF with and without polymers (24 h, visual and HPLC); details: for time to precipitation when agitated: ~4% w/w solids; for visual observation: stirred
Protocol: The solubility of elraglusib API with and without polymers of interest was evaluated in acetone. […] Samples were prepared according to Table 6-13. […] Additional studies were performed to determine if an increased water content would prevent formation of the solvate precipitate and more dilute solutions were tested for potential ASD processing.

[3] = Photo-Chamber Study 1 (10FV, 50FV, 50V7; visible and UV light)
Excerpt: The photo-chamber and ambient light studies used a RP-HPLC method to monitor the following: • elraglusib concentration and % LC • elraglusib main peak Area % • elraglusib RelS1, elraglusib RelS2, and elraglusib Anhydride peak Area % values.
The three solutions were maintained in both 5-mL glass serum vials and UV-transparent plastic cuvettes (each with and without foil overwrap) and exposed to fractions (approximately 0, 25, 50, 75, and 100%) of ICH Q1B photostability conditions (1200 klux-hr in the visible region and 200 watt-h/m^2 in the UV region) using a calibrated photo-chamber.

[4] = Solubility of elraglusib in acetone, acetone:water and THF with and without polymers (24 h, visual and HPLC)
[5] = Solubility of elraglusib in simulated intestinal fluid
Protocol: Solubility of elraglusib in simulated intestinal fluid with varying levels of SIF powder was measured to support formulation development, facilitate interpretation of in vitro dissolution, and support potential modeling and interpretation of in vivo pharmacokinetic data. The obtained solubility data are shown in Table 6-19 and is generally aligned with data previously collected for elraglusib.

Cn1cc(C2=C(c3coc4ccc(F)cc34)C(=O)NC2=O)c2cc3c(cc21)OCO3 [elraglusib, 3-(5-fluorobenzofuran-3-yl)-4-(5-methyl-5H-[1,3]dioxolo[4,5-f]indol-7-yl)-1H-pyrrole-2,5-dione]
ssNMR Signal to Noise (87-96 ppm), first derivative spectra [1]: 8.18 | time remaining soluble ([2]; 1.5-2.0% w/w in 95:5 acetone:water): over 24 hours | time to precipitation when agitated ([2]; 90:10 acetone:water): 3.5 h | time to precipitation when agitated ([2]; 95:5 acetone:water): 2 h | visual observation ([2]; Table 6-14 Sample 1: 4.02% w/w in Acetone, 30 min): Translucent | visual observation ([2]; Table 6-14 Sample 1: 4.02% w/w in Acetone, 1 hour): Translucent | visual observation ([2]; Table 6-14 Sample 1: 4.02% w/w in Acetone, 2 hours): Precipitation | visual observation ([2]; Table 6-14 Sample 1: 4.02% w/w in Acetone, 4 hours): No change | visual observation ([2]; Table 6-14 Sample 1: 4.02% w/w in Acetone, 8 hours): No change | visual observation ([2]; Table 6-14 Sample 1: 4.02% w/w in Acetone, 24 hours): No change | visual observation ([2]; Table 6-14 Sample 2: 4.02% w/w in THF, 30 min): Translucent | visual observation ([2]; Table 6-14 Sample 2: 4.02% w/w in THF, 1 hour): Translucent | visual observation ([2]; Table 6-14 Sample 2: 4.02% w/w in THF, 2 hours): Translucent | visual observation ([2]; Table 6-14 Sample 2: 4.02% w/w in THF, 4 hours): Translucent | visual observation ([2]; Table 6-14 Sample 2: 4.02% w/w in THF, 8 hours): Translucent | visual observation ([2]; Table 6-14 Sample 2: 4.02% w/w in THF, 24 hours): Translucent | visual observation ([2]; Table 6-14 Sample 3: 4.02% w/w in 95:5 Acetone:Water, 30 min): Translucent | visual observation ([2]; Table 6-14 Sample 3: 4.02% w/w in 95:5 Acetone:Water, 1 hour): Translucent | visual observation ([2]; Table 6-14 Sample 3: 4.02% w/w in 95:5 Acetone:Water, 2 hours): Precipitation | visual observation ([2]; Table 6-14 Sample 3: 4.02% w/w in 95:5 Acetone:Water, 4 hours): No change | visual observation ([2]; Table 6-14 Sample 3: 4.02% w/w in 95:5 Acetone:Water, 8 hours): No change | visual observation ([2]; Table 6-14 Sample 3: 4.02% w/w in 95:5 Acetone:Water, 24 hours): No change | visual observation ([2]; Table 6-14 Sample 4: 3.96% w/w API in Acetone with HPMCAS-MG (7.96% w/w total solids), 30 min): Hazy | visual observation ([2]; Table 6-14 Sample 4: 3.96% w/w API in Acetone with HPMCAS-MG (7.96% w/w total solids), 1 hour): Hazy | visual observation ([2]; Table 6-14 Sample 4: 3.96% w/w API in Acetone with HPMCAS-MG (7.96% w/w total solids), 2 hours): Hazy but no | visual observation ([2]; Table 6-14 Sample 4: 3.96% w/w API in Acetone with HPMCAS-MG (7.96% w/w total solids), 4 hours): Precipitation | visual observation ([2]; Table 6-14 Sample 4: 3.96% w/w API in Acetone with HPMCAS-MG (7.96% w/w total solids), 8 hours): No change | visual observation ([2]; Table 6-14 Sample 4: 3.96% w/w API in Acetone with HPMCAS-MG (7.96% w/w total solids), 24 hours): No change | visual observation ([2]; Table 6-17 Sample 1: 3.99% w/w in 90:10 acetone:water, 30 min): Translucent | visual observation ([2]; Table 6-17 Sample 1: 3.99% w/w in 90:10 acetone:water, 1 hour): Translucent | visual observation ([2]; Table 6-17 Sample 1: 3.99% w/w in 90:10 acetone:water, 2 hours): Translucent | visual observation ([2]; Table 6-17 Sample 1: 3.99% w/w in 90:10 acetone:water, 3.5 hours): Precipitation | visual observation ([2]; Table 6-17 Sample 1: 3.99% w/w in 90:10 acetone:water, 4 hours): No change | visual observation ([2]; Table 6-17 Sample 1: 3.99% w/w in 90:10 acetone:water, 21.5 hours): No change | visual observation ([2]; Table 6-17 Sample 2: 3.99% w/w in 95:5 acetone:water, 30 min): Translucent | visual observation ([2]; Table 6-17 Sample 2: 3.99% w/w in 95:5 acetone:water, 1 hour): Translucent | visual observation ([2]; Table 6-17 Sample 2: 3.99% w/w in 95:5 acetone:water, 2 hours): Precipitation | visual observation ([2]; Table 6-17 Sample 2: 3.99% w/w in 95:5 acetone:water, 3.5 hours): No change | visual observation ([2]; Table 6-17 Sample 2: 3.99% w/w in 95:5 acetone:water, 4 hours): No change | visual observation ([2]; Table 6-17 Sample 2: 3.99% w/w in 95:5 acetone:water, 21.5 hours): No change | visual observation ([2]; Table 6-17 Sample 3: 2.04% w/w in 95:5 acetone:water, 30 min): Translucent | visual observation ([2]; Table 6-17 Sample 3: 2.04% w/w in 95:5 acetone:water, 1 hour): No change | visual observation ([2]; Table 6-17 Sample 3: 2.04% w/w in 95:5 acetone:water, 2 hours): No change | visual observation ([2]; Table 6-17 Sample 3: 2.04% w/w in 95:5 acetone:water, 3.5 hours): No change | visual observation ([2]; Table 6-17 Sample 3: 2.04% w/w in 95:5 acetone:water, 4 hours): No change | visual observation ([2]; Table 6-17 Sample 3: 2.04% w/w in 95:5 acetone:water, 21.5 hours): No change | visual observation ([2]; Table 6-17 Sample 4: 1.84% w/w in 95:5 acetone:water, 30 min): Translucent | visual observation ([2]; Table 6-17 Sample 4: 1.84% w/w in 95:5 acetone:water, 1 hour): No change | visual observation ([2]; Table 6-17 Sample 4: 1.84% w/w in 95:5 acetone:water, 2 hours): No change | visual observation ([2]; Table 6-17 Sample 4: 1.84% w/w in 95:5 acetone:water, 3.5 hours): No change | visual observation ([2]; Table 6-17 Sample 4: 1.84% w/w in 95:5 acetone:water, 4 hours): No change | visual observation ([2]; Table 6-17 Sample 4: 1.84% w/w in 95:5 acetone:water, 21.5 hours): No change | visual observation ([2]; Table 6-17 Sample 5: 1.54% w/w in 95:5 acetone:water, 30 min): Translucent | visual observation ([2]; Table 6-17 Sample 5: 1.54% w/w in 95:5 acetone:water, 1 hour): No change | visual observation ([2]; Table 6-17 Sample 5: 1.54% w/w in 95:5 acetone:water, 2 hours): No change | visual observation ([2]; Table 6-17 Sample 5: 1.54% w/w in 95:5 acetone:water, 3.5 hours): No change | visual observation ([2]; Table 6-17 Sample 5: 1.54% w/w in 95:5 acetone:water, 4 hours): No change | visual observation ([2]; Table 6-17 Sample 5: 1.54% w/w in 95:5 acetone:water, 21.5 hours): No change | solubility in acetone ([2]; crystallizes at room temperature at static conditions): 4 % w/w | solubility at 24 h ([2]; organic solvent or mixture, thermodynamic from solid, acetone, 24 hours, read-out: measured solubility by HPLC): 13100 µg/mL (≈ 32300 µM) | % LC loss rate relative to main peak Area % loss rate ([3]; photo-exposure): approximately 6 times | photo-conversion rate, visible light compared with UV light ([3]; vials and cuvettes): approximately 5 times | % LC photo-conversion rate in vials (no foil) as % of rate in cuvettes (no foil) ([3]; visible light): approximately 60% | measured concentration by HPLC ([4]; THF solution, 24 hours (theoretical 37 mg/mL)): 34.68 mg/mL | time remaining soluble ([4]; tetrahydrofuran (THF)): over 24 hours | Average Concentration, 2 hour ([5]; 0.01N HCl, initial pH 2, [NaTC] 0 mM, 2 hour): 2.1 µg/mL | Average Concentration, 24 hour ([5]; 0.01N HCl, initial pH 2, [NaTC] 0 mM): 1.4 µg/mL | Average Concentration, 2 hour ([5]; 0.5% Simulated Intestinal Fluid (SIF), initial pH 6.5, [NaTC] 6.7 mM, 2 hour): 6.0 µg/mL | Average Concentration, 24 hour ([5]; 0.5% Simulated Intestinal Fluid (SIF), initial pH 6.5, [NaTC] 6.7 mM): 4.7 µg/mL | Average Concentration, 2 hour ([5]; 2% SIF, initial pH 6.5, [NaTC] 26.8 mM, 2 hour): 17.0 µg/mL | Average Concentration, 24 hour ([5]; 2% SIF, initial pH 6.5, [NaTC] 26.8 mM): 17.3 µg/mL | Average Concentration, 2 hour ([5]; Blank FaSSIF, initial pH 6.5, [NaTC] 0 mM, 2 hour): 2.5 µg/mL | Average Concentration, 24 hour ([5]; Blank FaSSIF, initial pH 6.5, [NaTC] 0 mM): 2.6 µg/mL | Average Concentration, 2 hour ([5]; Blank FeSSIF, initial pH 5, [NaTC] 0 mM, 2 hour): 2.4 µg/mL | Average Concentration, 24 hour ([5]; Blank FeSSIF, initial pH 5, [NaTC] 0 mM): 2.6 µg/mL | Average Concentration, 24 hour ([5]; FaSSIF, initial pH 6.5, [NaTC] 3 mM): 5.7 µg/mL | solubility ([5]; FaSSIF, pH 6.5, fassif, thermodynamic from solid, read-out: measured solubility of crystalline elraglusib): 5.7 µg/mL (≈ 14.1 µM) | Average Concentration, 2 hour ([5]; FeSSIF, initial pH 5, [NaTC] 15 mM, 2 hour): 8.4 µg/mL | Average Concentration, 24 hour ([5]; FeSSIF, initial pH 5, [NaTC] 15 mM): 11.6 µg/mL | pH dependence of equilibrium solubility ([5]; simulated intestinal fluid): essentially independent of pH | solubility thermodynamic at 2 h ([5]; thermodynamic from solid, FaSSIF, initial pH 6.5, [NaTC] 3 mM, 2 hour, read-out: Average Concentration, 2 hour): 5.2 µg/mL (≈ 12.9 µM)
